Results reported in patent US7019000B1, “Method of treating a disease condition caused or exacerbated by an HPV” (Institute of Molecular & Cell Biology, priority 1998, dated 2006).

Columns and labels:
[1] = molecular target: T1, HPV-16-E6 (recombinant GST-E6 protein) (Human papillomavirus type 16, UniProt P03126); assay: biochemical; type: biochemical; conditions: read-out: TSQ % (% values of Zinc release)
T1 construct: The full length HPV16 E6 gene was amplified via polymerase chain reaction and cloned in the vector pGeX4T2; made in house; host or cells: E. coli strain AB1899
From the text: Where the chelated metal is zinc, zinc release can be measured as an increase in the fluorescence of the zinc-selective fluorophore TSQ (N-(6-methoxy-8-quinolyl)-p-toluenesulfonamide) (18) in the presence of the protein and the active compound (TSQ assay).
In such an assay, the increase in fluorescence measured can be described as a percentage of the increase in fluorescence observed for a positive control compound which provides 100% zinc release. A suitable positive control compound is H2O2. Preferred compounds which may be useful in the present invention are those which release at least 30% of the chelated zinc as measured by the TSQ assay. Particularly preferred compounds for use in the present invention are those which release at least 40% of the chelated zinc, more preferably at least 50%.
In earlier studies, reduced glutathione (GSH) was required to elute recombinant glutathione sulfhydryl transferase E6 (recombinant (GST-E6)) protein during the purification process. However, the reducing activity of the GSH sulfhydryl groups protected GST-E6 protein from the chemical attack by agents, such as the disulphide based organic compounds of Formula (I) and (II). […] Individual assays were done in the presence of 9 μg GST-E6 protein, corresponding to a concentration of 1 μM GST-E6 protein and 2 μM bound zinc, assuming the presence of two Zn ions per protein.
Release of zinc from HPV-16-E6 was monitored by the change in fluorescence of the zinc-selective fluorophore TSQ (N-6-methoxy-8-quinolyl)-p-toluenesulfonamide), (Molecular Probes, Eugene, Oreg.) by modification of published procedures (25, 26, 27). In a total reaction volume of 200 μl, 9 μg (1 μM) recombinant GST-E6 protein (corresponding to a concentration of 1 μM), bound to glutathione-sepharose beads, were incubated with 10 μM of each compound or 0.6% (170 mM) H2O2 in TSQ-assay buffer (10 mM sodium phosphate buffer pH7.0, 10% glycerol) for 2 hours at room temperature (200 μl total volume in 96-well plates). Immediately after addition of 100 μM TSQ, the increase in fluorescence was measured on a SLT Fluostar (355 nm excitation filter and 460 nm emission filter, Tecan, Salzburg).
Values given are % values of Zinc release. The relative fluorescence units (RFU) were normalized to the amount of zinc released by H2O2 (regarded as 100%). The concentration of compound used was 10 μM for C27–C35, 13 μM for C37–C83, H2O2 was used at 0.3% for C27–C35 and 0.2% for C37–C83.

[2] = molecular target: T2, binding of E6 with E6AP and E6BP (Human papillomavirus type 16, UniProt P03126); set-up: species or system HPV-16; conditions: for BIACORE (E6BP/E6AP): 400 μM compound, 2 hrs at room temperature, GST-E6 7 μM in 10 mM GSH; for complex formation of GST-E6 with GST-E6AP/GST-E6BP, controls: 5 mM EDTA or 0.6% (170 mM) H2O2, 2 hrs at room temperature
T2 construct: The full length HPV16 E6 gene was amplified via polymerase chain reaction and cloned in the vector pGeX4T2; made in house; host or cells: E. coli strain AB1899
From the text: BIACORE allows real time analysis of bimolecular interactions without the need for isotopic or enzymatic labelling. BIACORE technology is based on the optical surface plasmon resonance (SPR), a technique that allows for detecting small changes in the refractive index on the surface of a thin gold film coated with a dextran matrix. Typically, one of the binding partners (termed the ligand) is covalently linked to the dextran matrix, while the other partner (termed the analyte) is introduced in a flow passing over the surface. The change in refractive index resulting from the interaction of the molecules is expressed in resonance units (RU): a SPR response of 1000 RU corresponds to a change of the surface concentration of the analyte of 1 ng protein/mm^2. GST-E6AP and GST-E6BP were used as ligands and GSTE6 was used as the analyte. […] Further controls included using the dextran matrix alone or GST as the ligand.
Binding of GST-E6 to GST-E6BP, GST-E6AP and GST was monitored by surface plasmon resonance (SPR) on a BIACORE 2000 machine (Biacore AB, Uppsala, Sweden). […] Typically 6000–10000 RU of GST, E6BP and E6AP were immobilized on three difference flowcells. Aliquots of purified HPV-16 GST-E6 (7 μM in 10 mM GSH, 50 mM Tris/PBS buffer, pH 8.2) were incubated with either 400 μM compound, or 5 mM EDTA, or 0.6% (170 mM) H2O2 for 2 hrs at room temperature. Then 10 μl of sample was injected at 1 μl/min over the three immobilized ligands using the sequential flow mode. The interactions between GST-E6 and ligands were monitored by the change of resonance signal in arbitrary units (RU).

[3] = tested on: HPV containing cell lines as HeLa, SiHa and Caski, compared to HPV-negative cell lines MCF7, HEPG2, (HaCat, HT3, 444); assay: Cell viability (WST1 assay), panel of HPV-positive and HPV-negative cell lines; type: cell-based, human; conditions: for WST1: 50 μM in cell culture; for WST1-spec: 50 μM, HPV containing vs HPV-negative cell lines
Experimental: Zinc finger proteins are required for maintenance of cell viability. Preferably, the compounds for use in the present invention are specific in their ability to affect the viability of MPV containing cells, with little or no cytotoxic effects on the cellular functioning of healthy non-MPV containing cells. The viability of MPV-infected cells (and non infected cells) in the presence of compounds of Formulae (I) or (II) can be measured by incubating with the tetrazolium salt WST1 (Roche Molecular Biochemicals, Manneheim Germany) and measuring the absorption readings thereof (WST1 assay).
All cell lines were obtained from the American Type Culture Collection (Manassas, Va.) unless otherwise noted. SiHa (human cervical epithelial tumor line, HPV16-positive), CaSki (human cervical epithelial tumor line, HPV16-positive), HaCat (immortalized human skin epithelial cell line, HPV-negative), HeLa (human cervical epithelial tumor line, HPV18-positive), 444 (hybrid of HeLa and fibroblast, HPV18-positive) obtained from Eric Stanbridge (Universitv of California, Irvine), MCF7 (human mammary epithelial tumor cell line, HPV-negative), HT3 (human cervical epithelial tumor cell line, HPV-negative) was obtained from the German Cancer Research Institute/DKFZ-Heidelberg, and HepG2, (human liver epithelial tumor cell line, HPV-negative), were grown in Dulbecco's modified Eagle medium (DMEM) supplemented with 10% fetal calf serum, 100 U penicillin and 1000 U streptomycin. Cells were allowed to attach to the surface of microwell dishes overnight and subsequently, incubated with medium containing the zinc ejecting compounds at the concentrations (10–100 μM). Viability of the cells was scored by measuring the absorption of the tetrazolium salt WST1 (Roche Molecular Biochemicals, Mannheim, Germany) in an Elisa-plate reader (Tecan, Salzburg, Austria) at a wavelength of 450 nm and a reference wavelength of 630 nm.
A total of 10 000 cells per well were plated on 24 well plates, after attachment overnight, they were treated 3 times in 3 days with C16 at 10 μM and 50 μM. The activity of C16 was also compared with that of C4 (azodicarbonamide) which causes ejection of zinc from HIV-1 NCp7 and is currently used in clinical trials for the treatment of AIDS.

T2 sequence (P03126 whole entry): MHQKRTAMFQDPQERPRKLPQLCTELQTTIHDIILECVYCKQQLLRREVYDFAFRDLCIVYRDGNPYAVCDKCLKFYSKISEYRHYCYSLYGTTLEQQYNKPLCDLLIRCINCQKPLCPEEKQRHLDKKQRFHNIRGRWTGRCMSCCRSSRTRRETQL
T1 sequence (P03126 whole entry): as above

Compound	activation at 13 µM [1]	BIACORE (E6BP/E6AP) [2]	WST1 [3]	WST1-spec [3]	activation at 10 µM [1]	growth inhibition ([3]; any of these six cell lines (FIG. 3))	complex formation of GST-E6 with GST-E6AP/GST-E6BP, controls [2]
CCN(CC)SSN(CC)CC [Compound C49]	57%	+ (compound interferes in binding of E6 with E6AP and E6BP, binding is less than 50% of the corresponding E6-DMSO value.)	+	–	–	–	–
CCOC(=O)N1CCN(SSN2CCN(C(=O)OCC)CC2)CC1 [Compound C41]	36.8%	+ (compound interferes in binding of E6 with E6AP and E6BP, binding is less than 50% of the corresponding E6-DMSO value.)	+	+	–	–	–
c1ccc(N2CCN(SSN3CCN(c4ccccn4)CC3)CC2)nc1 [Compound C55]	50.6%	+ (compound interferes in binding of E6 with E6AP and E6BP, binding is less than 50% of the corresponding E6-DMSO value.)	+	+	–	–	–
C1CN(SSN2CCSCC2)CCS1 [Compound C38]	41.8%	+ (compound interferes in binding of E6 with E6AP and E6BP, binding is less than 50% of the corresponding E6-DMSO value.)	+	+	–	–	–
CC1(C)COCN1SSN1COCC1(C)C [Compound C82]	28.4%	+ (compound interferes in binding of E6 with E6AP and E6BP, binding is less than 50% of the corresponding E6-DMSO value.)	+	–	–	–	–
CN1CCCN(C(=S)SSC(=S)N2CCCN(C)CC2)CC1 [Compound C35]	–	–	+	–	106%	–	–
NC(=O)N=NC(N)=O [Compound C4, azodicarbonamide, reference compound]	–	–	–	–	–	did not cause growth inhibition	–
C1CCN(SSN2CCCC2)C1 [Compound C42]	50.5%	+ (compound interferes in binding of E6 with E6AP and E6BP, binding is less than 50% of the corresponding E6-DMSO value.)	+	–	–	–	–
CN1CCN(SSN2CCN(C)CC2)CC1 [Compound C39]	45%	+ (compound interferes in binding of E6 with E6AP and E6BP, binding is less than 50% of the corresponding E6-DMSO value.)	+	+	–	–	–
C1CN1SSN1CC1 [Compound R24]	–	+ (compound interferes in binding of E6 with E6AP and E6BP, binding is less than 50% of the corresponding E6-DMSO value.)	+	–	71%	–	–
O=C(O)CN(CCN(CC(=O)O)CC(=O)O)CC(=O)O [EDTA, reference compound]	–	–	–	–	–	–	completely eliminated complex formation
COc1ccc(N2CCN(SSN3CCN(c4ccc(OC)cc4)CC3)CC2)cc1 [Compound C71]	0%	–	+	+	–	–	–
O=CN(SSN(C=O)C1CCCCC1)C1CCCCC1 [Compound R26]	–	+ (compound interferes in binding of E6 with E6AP and E6BP, binding is less than 50% of the corresponding E6-DMSO value.)	+	–	54.9%	–	–
CCOC(=O)CN(Cc1ccccc1)SSN(CC(=O)OCC)Cc1ccccc1 [Compound C83]	22%	+ (compound interferes in binding of E6 with E6AP and E6BP, binding is less than 50% of the corresponding E6-DMSO value.)	+	–	–	–	–
C1CCN(SSN2CCCCC2)CC1 [Compound C48]	54.3%	+ (compound interferes in binding of E6 with E6AP and E6BP, binding is less than 50% of the corresponding E6-DMSO value.)	+	+	–	–	–
O=C1c2ccccc2C(=O)N1SSN1C(=O)c2ccccc2C1=O [Compound C27]	–	+ (compound interferes in binding of E6 with E6AP and E6BP, binding is less than 50% of the corresponding E6-DMSO value.)	+	–	103%	–	–
O=[N+]([O-])c1ccc(N2CCN(SSN3CCN(c4ccc([N+](=O)[O-])cc4)CC3)CC2)cc1 [Compound C69]	0%	+ (compound interferes in binding of E6 with E6AP and E6BP, binding is less than 50% of the corresponding E6-DMSO value.)	–	–	–	–	–
CC1CN(SSN2CC(C)OC(C)C2)CC(C)O1 (centres unmarked) [Compound C37]	40.3%	+ (compound interferes in binding of E6 with E6AP and E6BP, binding is less than 50% of the corresponding E6-DMSO value.)	+	+	–	–	–
CC1CN1SSN1CC1C (centres unmarked) [Compound R25]	–	+ (compound interferes in binding of E6 with E6AP and E6BP, binding is less than 50% of the corresponding E6-DMSO value.)	–	–	30.9%	–	–
OO [Compound H2O2, H2O2, reference compound]	–	–	–	–	–	–	completely eliminated complex formation
S=C(SSC(=S)N1CCOCC1)N1CCOCC1 [Compound C32]	–	+ (compound interferes in binding of E6 with E6AP and E6BP, binding is less than 50% of the corresponding E6-DMSO value.)	–	–	80.9%	–	–
